In patent US11053204B2, “Pyrimidinyloxy benzene derivatives as herbicides” (FMC Corporation, priority 2015, dated 2021):

Key:
Format in all cases: in vivo
kochia (Kochia scoparia) [1] = experiment: Test A preemergence, visual injury rating; conditions: 0 to 100 scale (0 no effect, 100 complete control)
Outline: (§1)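 Greenhouse pot test, loam/sand soil. Formulation: non-phytotoxic solvent mix plus surfactant. Pre: directed spray onto soil after sowing. Post: plants at 1–2 leaf, 2–10 cm. Rated visually vs untreated controls at ~10 d, 0 (no effect) to 100 (complete control).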

[2] = tested on: barnyardgrass (Echinochloa crus-galli); experiment: Test A preemergence, visual injury rating; conditions: 0 to 100 scale (0 no effect, 100 complete control)
Outline: as §1

[3] = tested on: giant foxtail (Setaria faberii); experiment: Test A preemergence, visual injury rating; conditions: 0 to 100 scale (0 no effect, 100 complete control)
Outline: as §1

[4] = tested on: Italian ryegrass (Lolium multiflorum); experiment: Test A preemergence, visual injury rating; conditions: 0 to 100 scale (0 no effect, 100 complete control)
Outline: as §1

[5] = tested on: pigweed (Amaranthus retroflexus); experiment: Test A preemergence, visual injury rating; conditions: 0 to 100 scale (0 no effect, 100 complete control)
Outline: as §1

[6] = tested on: ragweed (common ragweed, Ambrosia elatior); experiment: Test A preemergence, visual injury rating; conditions: 0 to 100 scale (0 no effect, 100 complete control)
Outline: as §1

corn (Zea mays) = experiment: Test C postemergence, plant response rating; conditions: for Plant response rating, Corn: scale 0 to 100; for Corn plant response rating: scale 0 to 100 (0 no effect, 100 complete control)
Outline: (§2)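 Both timings shared one formulation, a non-phytotoxic solvent mixture with surfactant, and a greenhouse period of 13 to 15 d. Preemergence used seeded loam/sand or silt loam soil, postemergence used 2 to 18 cm plants; visual ratings ran from 0 (no effect) to 100 (complete control).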

[7] = tested on: crabgrass, large (large crabgrass, Digitaria sanguinalis); experiment: Test C postemergence, plant response rating; conditions: for Plant response rating, Crabgrass, Large: scale 0 to 100; for Crabgrass, Large plant response rating: scale 0 to 100 (0 no effect, 100 complete control)
Outline: as §2

kochia (Kochia scoparia) [8] = experiment: Test C postemergence, plant response rating; conditions: for Plant response rating, Kochia: scale 0 to 100; for Kochia plant response rating: scale 0 to 100 (0 no effect, 100 complete control)
Outline: as §2

[9] = tested on: barnyardgrass (Echinochloa crus-galli); experiment: Test C postemergence, plant response rating; conditions: for Plant response rating, Barnyardgrass: scale 0 to 100; for Barnyardgrass plant response rating: scale 0 to 100 (0 no effect, 100 complete control)
Outline: as §2

[10] = tested on: galium (catchweed bedstraw, Galium aparine); experiment: Test C postemergence, plant response rating; conditions: for Plant response rating, Galium: scale 0 to 100; for Galium plant response rating: scale 0 to 100 (0 no effect, 100 complete control)
Outline: as §2

[11] = tested on: blackgrass (Alopecurus myosuroides); experiment: Test C postemergence, plant response rating; conditions: for Plant response rating, Blackgrass: scale 0 to 100; for Blackgrass plant response rating: scale 0 to 100 (0 no effect, 100 complete control)
Outline: as §2

[12] = tested on: morningglory (Ipomoea coccinea); experiment: Test C postemergence, plant response rating; conditions: for Plant response rating, Morningglory: scale 0 to 100; for Morningglory plant response rating: scale 0 to 100 (0 no effect, 100 complete control)
Outline: as §2

[13] = tested on: wheat (winter wheat, Triticum aestivum); experiment: Test C postemergence, plant response rating; conditions: for Plant response rating, Wheat: scale 0 to 100; for Wheat plant response rating: scale 0 to 100 (0 no effect, 100 complete control)
Outline: as §2

[14] = tested on: nutsedge, yellow (yellow nutsedge, Cyperus esculentus); experiment: Test C postemergence, plant response rating; conditions: for Plant response rating, Nutsedge, Yellow: scale 0 to 100; for Nutsedge, Yellow plant response rating: scale 0 to 100 (0 no effect, 100 complete control)
Outline: as §2

[15] = tested on: oilseed rape (Brassica napus); experiment: Test C postemergence, plant response rating; conditions: for Plant response rating, Oilseed Rape: scale 0 to 100; for Oilseed Rape plant response rating: scale 0 to 100 (0 no effect, 100 complete control)
Outline: as §2

Which results are given for N#Cc1cccc(Oc2ncc(Cl)cn2)c1CCCC(F)(F)F [Compound 72]?
Kochia plant response rating (kochia (Kochia scoparia) [1]; 125 g ai/ha): 90; Kochia plant response rating (kochia (Kochia scoparia) [1]; 500 g ai/ha): 100; Barnyardgrass plant response rating ([2]; 125 g ai/ha): 90; Barnyardgrass plant response rating ([2]; 500 g ai/ha): 100; Foxtail, Giant plant response rating ([3]; 125 g ai/ha): 90; Foxtail, Giant plant response rating ([3]; 500 g ai/ha): 100; Ryegrass, Italian plant response rating ([4]; 125 g ai/ha): 10; Ryegrass, Italian plant response rating ([4]; 500 g ai/ha): 30; Pigweed plant response rating ([5]; 125 g ai/ha): 100; Pigweed plant response rating ([5]; 500 g ai/ha): 100; Ragweed plant response rating ([6]; 125 g ai/ha): 0; Ragweed plant response rating ([6]; 500 g ai/ha): 10; Plant response rating, Corn (corn (Zea mays); 16 g ai/ha): 10; Plant response rating, Corn (corn (Zea mays); 31 g ai/ha): 15; Corn plant response rating (corn (Zea mays); 62 g ai/ha): 10; Corn plant response rating (corn (Zea mays); 125 g ai/ha): 20; Plant response rating, Crabgrass, Large ([7]; 16 g ai/ha): 10; Plant response rating, Crabgrass, Large ([7]; 31 g ai/ha): 10; Crabgrass, Large plant response rating ([7]; 62 g ai/ha): 10; Crabgrass, Large plant response rating ([7]; 125 g ai/ha): 50; Plant response rating, Kochia (kochia (Kochia scoparia) [8]; 16 g ai/ha): 100; Plant response rating, Kochia (kochia (Kochia scoparia) [8]; 31 g ai/ha): 100; Kochia plant response rating (kochia (Kochia scoparia) [8]; 62 g ai/ha): 100; Kochia plant response rating (kochia (Kochia scoparia) [8]; 125 g ai/ha): 100; Plant response rating, Barnyardgrass ([9]; 16 g ai/ha): 5; Plant response rating, Barnyardgrass ([9]; 31 g ai/ha): 5; Barnyardgrass plant response rating ([9]; 62 g ai/ha): 10; Barnyardgrass plant response rating ([9]; 125 g ai/ha): 10; Plant response rating, Galium ([10]; 16 g ai/ha): 80; Plant response rating, Galium ([10]; 31 g ai/ha): 80; Galium plant response rating ([10]; 62 g ai/ha): 5; Galium plant response rating ([10]; 125 g ai/ha): 98; Plant response rating, Blackgrass ([11]; 16 g ai/ha): 5; Plant response rating, Blackgrass ([11]; 31 g ai/ha): 10; Blackgrass plant response rating ([11]; 62 g ai/ha): 10; Blackgrass plant response rating ([11]; 125 g ai/ha): 30; Plant response rating, Morningglory ([12]; 16 g ai/ha): 75; Plant response rating, Morningglory ([12]; 31 g ai/ha): 65; Morningglory plant response rating ([12]; 62 g ai/ha): 40; Morningglory plant response rating ([12]; 125 g ai/ha): 70; Plant response rating, Wheat ([13]; 16 g ai/ha): 0; Plant response rating, Wheat ([13]; 31 g ai/ha): 0; Wheat plant response rating ([13]; 62 g ai/ha): 0; Wheat plant response rating ([13]; 125 g ai/ha): 5; Plant response rating, Nutsedge, Yellow ([14]; 16 g ai/ha): 5; Plant response rating, Nutsedge, Yellow ([14]; 31 g ai/ha): 10; Nutsedge, Yellow plant response rating ([14]; 62 g ai/ha): 10; Nutsedge, Yellow plant response rating ([14]; 125 g ai/ha): 15; Plant response rating, Oilseed Rape ([15]; 16 g ai/ha): 50; Plant response rating, Oilseed Rape ([15]; 31 g ai/ha): 60; Oilseed Rape plant response rating ([15]; 62 g ai/ha): 0; Oilseed Rape plant response rating ([15]; 125 g ai/ha): 65
